The values that follow come from patent publication US5444042A, “Method of treatment of neurodegeneration with calpain inhibitors” (Cortex Pharmaceuticals, priority 1994, dated 1995).

Experiment [1] deals with gerbils subjected to transient ischemia. Briefly: Transient ischemia in gerbils, neuronal loss in CA1 (Example 3A). The experiment is classed as in vivo, gerbil. The settings on record: leupeptin 20 mg/ml intracerebroventricular perfusion 3 days before 10 min ischemia; 14 days later. As to the method:
A small cannula was implanted in the right lateral ventricle of adult gerbils, and secured to the skull with dental cement. An Alzet micro-osmotic pump was attached to the cannula for intracerebroventricular perfusion. The pump was filled with either saline alone (control) or leupeptin (20 mg/ml in saline). After three days perfusion with either the control solution or with the leupeptin solution, transient ischemia was induced by bilaterally clamping the carotid arteries for a period of ten minutes. […] Fourteen days later, the animals were sacrificed by Nembutal overdose and transcardial perfusion of a 10% solution of paraformaldehyde in PBS. Coronal sections of the brain were stained with cresyl violet and were examined for the extent of neuronal loss.

The test system of experiment [2] is Calpain activity (spectrin BDP's). Briefly: Transient ischemia in gerbils, spectrin BDP's in CA1 (Example 3B). The experiment is classed as in vivo, gerbil. The settings on record: CA1 region, 30 minutes after clamping. As to the method: Implantation surgeries and clamping of the carotid arteries were performed as above with a control-ischemia group (n=4) and a leupeptin-ischemia group (n=5). A third group of animals (n=4) received implantation with pumping of saline, but was not subjected to ischemia. Animals were sacrificed by decapitation 30 minutes after clamping of the arteries. The brains were rapidly removed and placed in cold homogenization buffer (0.32M sucrose, 10 mM Tris-HCl, 2 mM EDTA, 1 mM EGTA, 100 μM leupeptin and 1 μg/ml of the Halo-Ketone Compound, tos-phe-CH2 Cl (TPCK)). The CA1 region of the hippocampus was then dissected. The samples from both control and leupeptin treated animals were then prepared for SDS-PAGE and immunoblotting with labeled anti-spectrin antibody, as described above in connection with in vitro uses of the Calpain Inhibitors. […] These BDP's co-migrated with BDP's observed after in vitro proteolysis of spectrin with Calpain.

Regarding `CC(=O)N[C@@H](CC(C)C)C(=O)N[C@@H](CC(C)C)C(=O)N[C@H](C=O)CCCNC(=N)N` [Leupeptin, Ac-Leu-Leu-Arg-H, reference compound], the “loss of neurons in CA1 field” value in experiment [1] was found to be 15%. In addition, the “spectrin BDP's relative to control ischemia treated gerbils” value in experiment [2] is reported as “approximately 25%”.
